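At the GI50, growth is halved. The concentration for full growth arrest is given as TGI.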
Assays:
Assay in all cases: inhibition of tumour cell growth, NCI panel, 384-well format
HOP-62 NSCLC = tested on: HOP-62 NSCLC
786-0 renal = tested on: 786-0 renal
HL-60(TB) leukemia = tested on: HL-60(TB) leukemia
M14 melanoma = tested on: M14 melanoma
NCI/ADR-RES ovarian = tested on: NCI/ADR-RES ovarian
SK-OV-3 ovarian = tested on: SK-OV-3 ovarian
MALME-3M melanoma = tested on: MALME-3M melanoma
IGROV1 ovarian = tested on: IGROV1 ovarian
CAKI-1 renal = tested on: CAKI-1 renal
MCF7 breast = tested on: MCF7 breast
MDA-MB-231 breast = tested on: MDA-MB-231 breast
HOP-92 NSCLC = tested on: HOP-92 NSCLC
OVCAR-4 ovarian = tested on: OVCAR-4 ovarian
SNB-75 CNS = tested on: SNB-75 CNS
BT-549 breast = tested on: BT-549 breast
SR leukemia = tested on: SR leukemia
SK-MEL-28 melanoma = tested on: SK-MEL-28 melanoma
K-562 leukemia = tested on: K-562 leukemia
HT29 colon = tested on: HT29 colon
RPMI-8226 leukemia = tested on: RPMI-8226 leukemia
SN12C renal = tested on: SN12C renal
NCI-H322M lung = tested on: NCI-H322M lung
SF-539 CNS = tested on: SF-539 CNS
SF-268 CNS = tested on: SF-268 CNS
RXF 393 renal = tested on: RXF 393 renal
NCI-H23 lung = tested on: NCI-H23 lung
ACHN renal = tested on: ACHN renal
NCI-H460 NSCLC = tested on: NCI-H460 NSCLC
MOLT-4 leukemia = tested on: MOLT-4 leukemia

With `CCN(Cc1cc(Nc2nc(C)cn3c(-c4cn[nH]c4)cnc23)sn1)C(C)(C)CO` the GI50 (HOP-62 NSCLC) was 21 nM, the TGI (HOP-62 NSCLC) was 178 nM and the GI50 ([…]-0 renal) was 45.7 nM. For the same molecule, the TGI (786-0 renal) was 370 nM, the GI50 (HL-60(TB) leukemia) was less than 10 nM and the TGI (HL-60(TB) leukemia) was less than 10 nM. The GI50 (M14 melanoma) was less than 10 nM, the TGI (M14 melanoma) was 142 nM and the GI50 (NCI/ADR-RES ovarian) was 534 nM. It also gave a TGI (NCI/ADR-RES ovarian) of 4.08 µM, a GI50 (SK-OV-3 ovarian) of less than 10 nM and a TGI (SK-OV-3 ovarian) of 41.1 nM. It also gave a GI50 (MALME-3M melanoma) of 26.6 nM, a TGI (MALME-3M melanoma) of 1130 nM and a GI50 (IGROV1 ovarian) of 15.5 nM. It also gave a TGI (IGROV1 ovarian) of 372 nM, a GI50 (CAKI-1 renal) of less than 10 nM and a TGI (CAKI-1 renal) of 42.1 nM. The GI50 (MCF7 breast) was 139 nM, the TGI (MCF7 breast) was 1580 nM and the GI50 (MDA-MB-231 breast) was 30 nM. For the same molecule, the TGI (MDA-MB-231 breast) was 830 nM, the GI50 (HOP-92 NSCLC) was 32.3 nM and the TGI (HOP-92 NSCLC) was 178 nM. For the same molecule, the GI50 (OVCAR-4 ovarian) was 114 nM, the TGI (OVCAR-4 ovarian) was 357 nM and the GI50 (SNB-75 CNS) was 10 nM. The TGI (SNB-75 CNS) was 36.9 nM, the GI50 (BT-549 breast) was 11.6 nM and the TGI (BT-549 breast) was 50.4 nM. The GI50 (SR leukemia) was less than 10 nM, the TGI (SR leukemia) was less than 10 nM and the GI50 (SK-MEL-28 melanoma) was 169 nM. It also gave a TGI (SK-MEL-28 melanoma) of 9.72 µM, a GI50 (K-562 leukemia) of less than 10 nM and a TGI (K-562 leukemia) of less than 10 nM. For the same molecule, the GI50 (HT29 colon) was 74.1 nM, the TGI (HT29 colon) was 490 nM and the GI50 (RPMI-8226 leukemia) was 29.1 nM. The TGI (RPMI-8226 leukemia) was 123 nM, the GI50 (SN12C renal) was 13.7 nM and the TGI (SN12C renal) was 61.3 nM. It also gave a GI50 (NCI-H322M lung) of 69.2 nM, a TGI (NCI-H322M lung) of 1660 nM and a GI50 (SF-539 CNS) of 12 nM. It also gave a TGI (SF-539 CNS) of 57.2 nM, a GI50 (SF-268 CNS) of 14.8 nM and a TGI (SF-268 CNS) of 170 nM. For the same molecule, the GI50 (RXF 393 renal) was less than 10 nM, the TGI (RXF 393 renal) was 133 nM and the GI50 (NCI-H23 lung) was 40.9 nM. The TGI (NCI-H23 lung) was 274 nM, the GI50 (ACHN renal) was 33.4 nM and the TGI (ACHN renal) was 10.6 µM. The GI50 (NCI-H460 NSCLC) was 26.1 nM, the TGI (NCI-H460 NSCLC) was 1130 nM and the GI50 (MOLT-4 leukemia) was less than 10 nM. It also gave a TGI (MOLT-4 leukemia) of less than 10 nM.
